In ChEMBL document CHEMBL3885861, “Open TG-GATES”:

Species on record: Rattus norvegicus
Assay: Open TG-GATES - Regimen: Single
Type: toxicity, organism-based, Sprague-Dawley
Set-up: regimen Single, gender Male, age 6 weeks
Conditions: in vivo, po, 150 mg/kg, route gavage, dose level Middle; for APTT / Bas / Eos / Fbg / Hb / Ht / Lym / MCH / MCHC / MCV / Mono / Neu / PT / Plat / RBC / Ret / WBC: tissue Blood; for KIDNEY_L / KIDNEY_R / KIDNEY_TOTAL: tissue Kidney; for LIVER: tissue Liver; for A/G / ALP / ALT / AST / BUN / CRE / Ca / Cl / DBIL / GLC / IP / K / LDH / Na / PL / RALB / TBIL / TC / TG / TP / gamma-GTP: tissue Plasma

In the case of `CC(=O)Oc1cc(C(C)C)c(OCCN(C)C)cc1C` [MOXISYLYTE], the TERMINAL_BW (3 h) is reported as 205.7 g, the APTT (3 h) is reported as 22.9 s and the Bas (3 h) is reported as 0%. The Eos (3 h) was 1%, the Fbg (3 h) was 293 mg/dL and the Hb (3 h) was 13.5 g/dL. For the same molecule, the Ht (3 h) was 39.8%, the Lym (3 h) was 75% and the MCH (3 h) was 21.3 pg. The MCHC (3 h) was 33.8%, the MCV (3 h) was 62.8 fL and the Mono (3 h) was 1.6%. The Neu (3 h) was 21.8%, the PT (3 h) was 15.9 s and the Plat (3 h) was 112.4 x10_4/uL. The RBC (3 h) was 634.4 x10_4/ul, the Ret (3 h) was 7.5% and the WBC (3 h) was 68.3 x10_2/uL. For the same molecule, the KIDNEY_L (3 h) was 0.9 g, the KIDNEY_R (3 h) was 0.9 g and the KIDNEY_TOTAL (3 h) was 1.8 g. For the same molecule, the LIVER (3 h) was 9.3 g, the A/G (3 h) was 1.3 and the ALP (3 h) was 1569.2 IU/L. The ALT (3 h) was 44 IU/L, the AST (3 h) was 81.4 IU/L and the BUN (3 h) was 13.2 mg/dL. It also gave a CRE (3 h) of 0.2 mg/dL, a Ca (3 h) of 10.5 mg/dL and a Cl (3 h) of 107.8 meq/L. It also gave a DBIL (3 h) of 0.004 mg/dL, a GLC (3 h) of 194 mg/dL and an IP (3 h) of 9.3 mg/dL. For the same molecule, the K (3 h) was 4.2 meq/L, the LDH (3 h) was 315.8 IU/L and the Na (3 h) was 142 meq/L. The PL (3 h) was 128.4 mg/dL, the RALB (3 h) was 3.1 g/dL and the TBIL (3 h) was 0.03 mg/dL. The TC (3 h) was 75.8 mg/dL, the TG (3 h) was 28.8 mg/dL and the TP (3 h) was 5.4 g/dL. For the same molecule, the gamma-GTP (3 h) was 1.2 IU/L, the TERMINAL_BW (6 h) was 206.6 g and the APTT (6 h) was 21.8 s. The Bas (6 h) was 0%, the Eos (6 h) was 1% and the Fbg (6 h) was 313.2 mg/dL. It also gave a Hb (6 h) of 13.3 g/dL, a Ht (6 h) of 38.6% and a Lym (6 h) of 72%. It also gave an MCH (6 h) of 20.8 pg, an MCHC (6 h) of 34.4% and an MCV (6 h) of 60.3 fL. For the same molecule, the Mono (6 h) was 2.2%, the Neu (6 h) was 23.8% and the PT (6 h) was 15.8 s. For the same molecule, the Plat (6 h) was 129.5 x10_4/uL, the RBC (6 h) was 641.2 x10_4/ul and the Ret (6 h) was 7.2%. It also gave a WBC (6 h) of 67.7 x10_2/uL, a KIDNEY_L (6 h) of 0.9 g and a KIDNEY_R (6 h) of 0.9 g. It also gave a KIDNEY_TOTAL (6 h) of 1.9 g, an LIVER (6 h) of 8.9 g and an A/G (6 h) of 1.2. The ALP (6 h) was 1449.6 IU/L, the ALT (6 h) was 39.4 IU/L and the AST (6 h) was 74.8 IU/L. The BUN (6 h) was 10.6 mg/dL, the CRE (6 h) was 0.2 mg/dL and the Ca (6 h) was 10.6 mg/dL. For the same molecule, the Cl (6 h) was 108.4 meq/L, the DBIL (6 h) was 0.01 mg/dL and the GLC (6 h) was 181.8 mg/dL. The IP (6 h) was 9 mg/dL, the K (6 h) was 4.8 meq/L and the LDH (6 h) was 253.6 IU/L. The Na (6 h) was 140.8 meq/L, the PL (6 h) was 137.4 mg/dL and the RALB (6 h) was 3 g/dL. The TBIL (6 h) was 0.008 mg/dL, the TC (6 h) was 72.2 mg/dL and the TG (6 h) was 61.6 mg/dL. It also gave a TP (6 h) of 5.4 g/dL, a gamma-GTP (6 h) of 1 IU/L and a TERMINAL_BW (9 h) of 208.5 g. It also gave an APTT (9 h) of 21.5 s, a Bas (9 h) of 0% and an Eos (9 h) of 1%. It also gave a Fbg (9 h) of 308.2 mg/dL, a Hb (9 h) of 13.3 g/dL and a Ht (9 h) of 38.7%. For the same molecule, the Lym (9 h) was 72%, the MCH (9 h) was 21.2 pg and the MCHC (9 h) was 34.5%. For the same molecule, the MCV (9 h) was 61.4 fL, the Mono (9 h) was 2.4% and the Neu (9 h) was 23.8%. It also gave a PT (9 h) of 15.9 s, a Plat (9 h) of 118.6 x10_4/uL and an RBC (9 h) of 631.2 x10_4/ul. For the same molecule, the Ret (9 h) was 8.4%, the WBC (9 h) was 93 x10_2/uL and the KIDNEY_L (9 h) was 1 g. It also gave a KIDNEY_R (9 h) of 1 g, a KIDNEY_TOTAL (9 h) of 1.9 g and an LIVER (9 h) of 8.5 g. It also gave an A/G (9 h) of 1.3, an ALP (9 h) of 1409.6 IU/L and an ALT (9 h) of 38.8 IU/L. It also gave an AST (9 h) of 70.2 IU/L, a BUN (9 h) of 11.4 mg/dL and a CRE (9 h) of 0.2 mg/dL. The Ca (9 h) was 10.5 mg/dL, the Cl (9 h) was 107.8 meq/L and the DBIL (9 h) was 0.008 mg/dL. The GLC (9 h) was 181.8 mg/dL, the IP (9 h) was 9.7 mg/dL and the K (9 h) was 4.3 meq/L. The LDH (9 h) was 240.2 IU/L, the Na (9 h) was 141.8 meq/L and the PL (9 h) was 135 mg/dL. The RALB (9 h) was 3.1 g/dL, the TBIL (9 h) was 0.026 mg/dL and the TC (9 h) was 75.6 mg/dL. The TG (9 h) was 47.4 mg/dL, the TP (9 h) was 5.6 g/dL and the gamma-GTP (9 h) was 1 IU/L. It also gave a TERMINAL_BW (24 h) of 221.8 g, an APTT (24 h) of 21.2 s and a Bas (24 h) of 0%. The Eos (24 h) was 0.8%, the Fbg (24 h) was 313.8 mg/dL and the Hb (24 h) was 13.5 g/dL. The Ht (24 h) was 38.6%, the Lym (24 h) was 79.6% and the MCH (24 h) was 21.3 pg. For the same molecule, the MCHC (24 h) was 34.9%, the MCV (24 h) was 61.2 fL and the Mono (24 h) was 2%. The Neu (24 h) was 17.4%, the PT (24 h) was 15.8 s and the Plat (24 h) was 121.2 x10_4/uL. For the same molecule, the RBC (24 h) was 632.2 x10_4/ul, the Ret (24 h) was 7.7% and the WBC (24 h) was 96.5 x10_2/uL. It also gave a KIDNEY_L (24 h) of 1 g, a KIDNEY_R (24 h) of 1 g and a KIDNEY_TOTAL (24 h) of 2 g. It also gave an LIVER (24 h) of 10.8 g, an A/G (24 h) of 1.2 and an ALP (24 h) of 1617.2 IU/L. It also gave an ALT (24 h) of 43.6 IU/L, an AST (24 h) of 70.8 IU/L and a BUN (24 h) of 17.2 mg/dL. It also gave a CRE (24 h) of 0.2 mg/dL, a Ca (24 h) of 11.3 mg/dL and a Cl (24 h) of 106 meq/L. It also gave a DBIL (24 h) of 0 mg/dL, a GLC (24 h) of 179.4 mg/dL and an IP (24 h) of 7.4 mg/dL. For the same molecule, the K (24 h) was 4.3 meq/L, the LDH (24 h) was 247.2 IU/L and the Na (24 h) was 141.8 meq/L. It also gave a PL (24 h) of 163.2 mg/dL, an RALB (24 h) of 3.2 g/dL and a TBIL (24 h) of 0.006 mg/dL. For the same molecule, the TC (24 h) was 81.6 mg/dL, the TG (24 h) was 178.8 mg/dL and the TP (24 h) was 5.9 g/dL. For the same molecule, the gamma-GTP (24 h) was 1.4 IU/L.
